Assay results published in ChEMBL document CHEMBL4483862, “Open-source discovery of chemical leads for next-generation chemoprotective antimalarials” (2018).

Test system: Plasmodium berghei
Test: Luciferase/luciferin-expressing antifolate-resistant parasites were used to infect a culture of HepG2 cells that were pre-incubated with compounds. Infected hepatocytes emit light due to the luciferase reaction. Assay results are presented as the percent inhibition of light emission compared to control. […]
Type: functional
Details: sporozoite; for IC90: read-out: LUCIFERASE INFECTION ASSAY - IC90
[1] = read-out: LUCIFERASE INFECTION ASSAY - IC50

Structure (SMILES) | IC90 | IC50 [1] | further results
CC1C(=O)N(CC(O)COCc2ccccc2Cl)C(=O)N1c1ccccc1 (configuration not stated) | > 10 µM | – | IC50 (FFLUC_HILL_SLOPE 10.9, FFLUC_R_SQUARED 0.0106, read-out: LUCIFERASE INFECTION ASSAY - IC50): > 10 µM
COc1ccc(-[n+]2c(-c3ccc(Br)cc3)cn3c2CCc2ccccc2-3)cc1 | 3.77 µM | – | IC50 (HEPG2TOX_HILL_SLOPE 3.09, HEPG2TOX_R_SQUARED 0.93, PBLUC_HILL_SLOPE 14.3, PBLUC_R_SQUARED 0.689, read-out: LUCIFERASE INFECTION ASSAY - IC50): 3.23 µM
CC(Sc1nc2ccccc2c(=O)n1-c1ccccc1F)c1nnc(-c2cccs2)o1 (configuration not stated) | > 10 µM | – | IC50 (HEPG2TOX_HILL_SLOPE 12.8, HEPG2TOX_R_SQUARED 0.22, PBLUC_HILL_SLOPE 16.4, PBLUC_R_SQUARED 0.485, read-out: LUCIFERASE INFECTION ASSAY - IC50): 8.88 µM
CC(=O)c1ccc(-c2ccc(C(=O)N3CCCc4ccccc43)o2)cc1 | 0.942 µM | – | IC50 (PBLUC_HILL_SLOPE 1.77, PBLUC_R_SQUARED 0.773, read-out: LUCIFERASE INFECTION ASSAY - IC50): 0.272 µM
CCCNC(=O)c1c(NC(=O)c2ccc(C)cc2)nc2ccccn12 | 9.6 µM | – | IC50 (PBLUC_HILL_SLOPE 5.82, PBLUC_R_SQUARED 0.26, read-out: LUCIFERASE INFECTION ASSAY - IC50): 6.58 µM
CCC(CO)Nc1ccc2ncc(-c3ccc(OC)nc3)n2n1 (configuration not stated) | 5.43 µM | – | IC50 (PBLUC_HILL_SLOPE 2.84, PBLUC_R_SQUARED 0.538, read-out: LUCIFERASE INFECTION ASSAY - IC50): 2.51 µM
O=C(NNC(=O)C12CC3CC(CC(C3)C1)C2)c1nn(-c2ccccc2)cc1O | 3.89 µM | 3.26 µM | –
Cc1ccccc1NC(=O)Nc1nc(C(N)COCc2ccccc2)cs1 (configuration not stated) | > 8.63 µM | – | IC50 (HEPG2TOX_HILL_SLOPE 7.21, HEPG2TOX_R_SQUARED 0.623, PBLUC_HILL_SLOPE 21.4, PBLUC_R_SQUARED 0.0439, read-out: LUCIFERASE INFECTION ASSAY - IC50): 7.8 µM
CCOCc1c(C(=O)NC2=C(C(=O)OCC)C(CC)=Nc3ccccc3N2)oc2ccccc12 | 8.81 µM | – | IC50 (PBLUC_HILL_SLOPE 13.2, PBLUC_R_SQUARED 0.167, read-out: LUCIFERASE INFECTION ASSAY - IC50): 7.46 µM
Cc1ccccc1-n1c(Sc2ncccc2[N+](=O)[O-])nc2ccccc2c1=O | > 10 µM | > 10 µM | –
CCCCNC(=O)c1c(NC(=O)c2ccc(F)cc2)nc2ccc(C)cn12 | 3.28 µM | 2.67 µM | –
COc1cc(-c2cnc3cnc(-c4cccc(NC(C)=O)c4)cn23)cc(OC)c1OC | > 7.89 µM | 3.93 µM | –
O=C(NCc1ccc(Oc2ccc(F)cc2)cc1)c1ccc(=O)[nH]n1 | > 10 µM | – | IC50 (HEPG2TOX_HILL_SLOPE 2.29, HEPG2TOX_R_SQUARED 0.724, PBLUC_HILL_SLOPE 1.94, PBLUC_R_SQUARED 0.162, read-out: LUCIFERASE INFECTION ASSAY - IC50): 5.95 µM
COc1cc(/C=C(/C(=O)Nc2ccc(Cl)cc2)c2nc3ccccc3s2)ccc1OC(F)F | 3.33 µM | – | IC50 (FFLUC_HILL_SLOPE 4.93, FFLUC_R_SQUARED 0.384, HEPG2TOX_HILL_SLOPE 14.8, HEPG2TOX_R_SQUARED 0.909, PBLUC_HILL_SLOPE 5.39, PBLUC_R_SQUARED 0.576, read-out: LUCIFERASE INFECTION ASSAY - IC50): 2.21 µM
O=C(Nc1nc(-c2ccccn2)cs1)c1cc([N+](=O)[O-])ccc1N1CCC(Cc2ccccc2)CC1 | > 10 µM | > 10 µM | –
Cc1noc(/C=C/c2nn(C)cc2Cl)c1[N+](=O)[O-] | 11.7 µM | – | IC50 (HEPG2TOX_HILL_SLOPE 8.49, HEPG2TOX_R_SQUARED 0.211, PBLUC_HILL_SLOPE 2.15, PBLUC_R_SQUARED 0.722, read-out: LUCIFERASE INFECTION ASSAY - IC50): 4.22 µM
Cc1ccc2nc(NC(=O)c3cccc(C(F)(F)F)c3)c(C(=O)NC3CCCCC3)n2c1 | 0.579 µM | – | IC50 (FFLUC_HILL_SLOPE 2.54, FFLUC_R_SQUARED 0.701, HEPG2TOX_HILL_SLOPE 1.03, HEPG2TOX_R_SQUARED 0.261, PBLUC_HILL_SLOPE 2.67, PBLUC_R_SQUARED 0.838, read-out: LUCIFERASE INFECTION ASSAY - IC50): 0.254 µM
CCCc1cc(C(=O)Nc2ccc(OC(F)F)cc2)sc1C | > 10 µM | – | IC50 (PBLUC_HILL_SLOPE 2.93, PBLUC_R_SQUARED 0.424, read-out: LUCIFERASE INFECTION ASSAY - IC50): 8.81 µM
Cc1ccccc1CN1CCN2C(C(=O)NCc3cccc(Cl)c3)=COC2=NC1=O | > 10 µM | > 10 µM | –
CCN(CC)c1nc(N)c2c(N)nc3c(c2c1C#N)CC(=O)N3c1cc(Cl)cc(Cl)c1 | > 10 µM | – | IC50 (FFLUC_HILL_SLOPE 11.5, FFLUC_R_SQUARED 0.738, PBLUC_HILL_SLOPE 1.44, PBLUC_R_SQUARED 0.624, read-out: LUCIFERASE INFECTION ASSAY - IC50): 4.18 µM
Cc1cc(-c2ccccc2)[n+]2nc(N)c3ccccc3c2n1 | > 10 µM | – | IC50 (HEPG2TOX_HILL_SLOPE 2.74, HEPG2TOX_R_SQUARED 0.909, PBLUC_HILL_SLOPE 12.1, PBLUC_R_SQUARED 0.242, read-out: LUCIFERASE INFECTION ASSAY - IC50): 9.17 µM

Structure (SMILES) | IC90 | IC50 [1] | further results
COc1ccc(-c2cnc3cnc(-c4cnn(C)c4)cn23)cn1 | > 10.8 µM | – | IC50 (PBLUC_HILL_SLOPE 3.07, PBLUC_R_SQUARED 0.552, read-out: LUCIFERASE INFECTION ASSAY - IC50): 6.4 µM
CNC(=O)c1nn(CCc2ccccc2)c2c1CC(NCCC(C)C)CC2 (configuration not stated) | > 8.95 µM | > 8.95 µM | –
Cn1c(N)c(C(=O)CSc2nnc(-c3ccccc3)c(-c3ccccc3)n2)c(=O)n(C)c1=O | > 10 µM | – | IC50 (PBLUC_HILL_SLOPE 1.94, PBLUC_R_SQUARED 0.495, read-out: LUCIFERASE INFECTION ASSAY - IC50): 3.75 µM
OC(c1cc(C(F)(F)F)cc(C(F)(F)F)c1)c1cc(C(F)(F)F)cc(C(F)(F)F)c1 | > 7.23 µM | – | IC50 (HEPG2TOX_HILL_SLOPE 8.63, HEPG2TOX_R_SQUARED 0.166, read-out: LUCIFERASE INFECTION ASSAY - IC50): > 7.23 µM
COc1cc(OC)cc(C(=O)Nc2nc3ccc(C)cn3c2C(=O)NC2CCCCC2)c1 | 1.03 µM | – | IC50 (HEPG2TOX_HILL_SLOPE 1.81, HEPG2TOX_R_SQUARED 0.745, PBLUC_HILL_SLOPE 12.8, PBLUC_R_SQUARED 0.53, read-out: LUCIFERASE INFECTION ASSAY - IC50): 0.872 µM
CN(C)c1ccc(-c2cc3c(cn2)nc(NCc2ccccc2)n3C)cc1 | > 10 µM | > 10 µM | –
CNc1nc2cnc(Nc3cccc(C(C)C)c3)cc2n1Cc1ccco1 | > 10 µM | > 10 µM | –
C[C@]12CC[C@H](O)C[C@H]1CC[C@@H]1C2CC[C@]2(C)[C@@H](C3=CC(=O)OC3)[C@@H](O)C[C@]12O (some centres not stated) | 8.37 µM | – | IC50 (HEPG2TOX_HILL_SLOPE 3.04, HEPG2TOX_R_SQUARED 0.92, PBLUC_HILL_SLOPE 1.95, PBLUC_R_SQUARED 0.451, read-out: LUCIFERASE INFECTION ASSAY - IC50): 2.7 µM
COc1ccc2c(Cn3ncc(Cl)c(Cl)c3=O)cc(=O)oc2c1 | 7.19 µM | 4.21 µM | –
NC(Cc1ccc(F)cc1)c1csc(NC(=O)c2ccc(F)c(Cl)c2)n1 (configuration not stated) | 5.68 µM | – | IC50 (PBLUC_HILL_SLOPE 84.1, PBLUC_R_SQUARED 0.0637, read-out: LUCIFERASE INFECTION ASSAY - IC50): 5.54 µM
CCOc1cccc(-c2cn3c(-c4cccc(O)c4)cnc3cn2)c1 | 9.74 µM | – | IC50 (HEPG2TOX_HILL_SLOPE 1.42, HEPG2TOX_R_SQUARED 0.867, PBLUC_HILL_SLOPE 1.9, PBLUC_R_SQUARED 0.651, read-out: LUCIFERASE INFECTION ASSAY - IC50): 3.05 µM
O=C(Nc1ccccc1)c1nnsc1S(=O)(=O)c1ccc(Cl)cc1 | > 8.69 µM | > 8.69 µM | –
CC(=O)Nc1ccccc1OS(=O)(=O)c1ccc(N2CCCC2=O)cc1 | 1.38 µM | – | IC50 (HEPG2TOX_HILL_SLOPE 1.61, HEPG2TOX_R_SQUARED 0.866, PBLUC_HILL_SLOPE 5.07, PBLUC_R_SQUARED 0.799, read-out: LUCIFERASE INFECTION ASSAY - IC50): 0.894 µM
N#Cc1ccc(OCC(=O)c2ccc(OC(F)F)cc2OC(F)F)cc1 | > 10 µM | > 10 µM | –
Cc1cc(C(=O)NN2Cc3ccccc3C2=N)c(C)n1-c1ccccc1 | > 10 µM | – | IC50 (HEPG2TOX_HILL_SLOPE 1.03, HEPG2TOX_R_SQUARED 0.677, read-out: LUCIFERASE INFECTION ASSAY - IC50): > 10 µM
Clc1cccc(-c2[nH]nc3nccc(-c4ccc(N5CCNCC5)cc4)c23)c1 | 4.08 µM | – | IC50 (FFLUC_HILL_SLOPE 19.9, FFLUC_R_SQUARED 0.198, HEPG2TOX_HILL_SLOPE 3.67, HEPG2TOX_R_SQUARED 0.922, PBLUC_HILL_SLOPE 10.3, PBLUC_R_SQUARED 0.464, read-out: LUCIFERASE INFECTION ASSAY - IC50): 3.3 µM
COc1ccc(-c2c(C)nn3c(=O)cc(-c4ccccc4)[nH]c23)cc1 | 9.94 µM | – | IC50 (HEPG2TOX_HILL_SLOPE 10.3, HEPG2TOX_R_SQUARED 0.705, PBLUC_HILL_SLOPE 12.5, PBLUC_R_SQUARED 0.547, read-out: LUCIFERASE INFECTION ASSAY - IC50): 8.34 µM
CN(C)C(=O)CC(NC(=O)Nc1ccc(F)cc1F)c1ccccc1 (configuration not stated) | > 10 µM | > 10 µM | –
O=[N+]([O-])c1cnc(Sc2nnc(-c3ccco3)n2-c2ccc(OCc3ccccc3)cc2)s1 | > 6.91 µM | – | IC50 (FFLUC_HILL_SLOPE 16.1, FFLUC_R_SQUARED 0.469, read-out: LUCIFERASE INFECTION ASSAY - IC50): > 6.91 µM
CCN(CC)c1ccc(NC(=O)c2cccc(F)c2)cc1 | 6.44 µM | – | IC50 (HEPG2TOX_HILL_SLOPE 2.87, HEPG2TOX_R_SQUARED 0.815, PBLUC_HILL_SLOPE 5.54, PBLUC_R_SQUARED 0.522, read-out: LUCIFERASE INFECTION ASSAY - IC50): 4.33 µM
